In patent US8410066B2, “Heterobifunctional inhibitors of E-selectins and CXCR4 chemokine receptors” (GlycoMimetics, Inc., priority 2009, dated 2013):
pIC50: −log10 of the molar value.

Experiments:
[1] = molecular target: T1, CXCR4 on the surface of SupT1 cells (Homo sapiens, UniProt P61073); assay: Inhibition of binding of anti-CXCR4-PE antibody to CXCR4 on SupT1 cells (flow cytometry); conditions: for % positive / Mean fluorescence intensity / Median fluorescence intensity: anti-CXCR4-PE
T1 construct: constitutively express CXCR4 on the cell surface; host or cells: SupT1 cells
Source text: The assay assesses the ability of glycomimetic compounds to inhibit binding of an anti-CXCR4 antibody conjugated to phycoerythrin (“PE”), to CXCR4 on the surface of SupT1 cells. SupT1 cells are a T lymphoblast derived from a lymphoblastic leukemia and constitutively express CXCR4 on the cell surface. The cells are purchased from ATCC (ATCC number CRL-1942). Anti-human CXCR4-phycoerythrin monoclonal antibody (anti-CXCR4-PE) is purchased from R&D Systems (catalog number FAB170P, clone 12G5). The cells are grown in RPMI 1640 medium supplemented with 10% FBS. Approximately 2×10^6 cells are washed three times by centrifuging the cells at 400×g for 10 minutes and the cell pellet is resuspended in PBS plus 0.05% BSA. After the third centrifugation, the cell pellet is resuspended in PBS plus BSA to a concentration of 5×10^5 cells per ml. To block non-specific binding, human […] is added to the cells to a concentration of 1 μg per 10^5 cells. Next, 200 μl (1×10^5 cells) are added to 5 ml polypropylene round-bottom tubes (Falcon 2063 tubes). Compound #1 (Example 1) (lot 31-190) is added to the cells at final concentrations of 0.5, 5, 10, and 50 μM. To achieve a final concentration of 0.5 μM, 2.2 μl of 50 μM Compound #1 plus 19.8 μl of PBS/BSA are added to 200 μl of cells. To achieve a final concentration of 5 μM, 22 μl of 50 μM Compound #1 are added to 200 μl of cells. To achieve a final concentration of 10 μM, 4.4 μl of 500 μM Compound #1 plus 17.6 μl of PBS/BSA are added to 200 μl of cells. To achieve a final concentration of 50 μM, 22 μl of 500 μM Compound #1 are added to 200 μl of cells. Other aliquots of cells are treated with either 1 or 5 μM of the bicyclam CXCR4 antagonist AMD-3100 (Sigma Aldrich, catalog #A5602). To achieve a final concentration of 1 μM AMD-3100, 4.4 μl of 50 μM AMD-3100 plus 17.6 μl of PBS/BSA are added to 200 μl of cells and to achieve a final concentration of 5 μM, 22 μl of 50 μM AMD-3100 are added to 200 μl of cells. In addition, one tube of cells is treated with 1 μg/ml of SDF-1α (R&D Systems catalog #350-NS), the natural ligand of CXCR4. The tubes are placed at 4° C. for 15 minutes. Subsequently, each tube receives 10 μl of anti-CXCR4-PE, except one tube of cells receives 10 μl of mouse IgG 2A isotype control antibody. The tubes are incubated at 4° C. for 45 minutes. The cells are washed twice with PBS plus 0.05% BSA and the final cell pellet is resuspended in 100 μl of PBS/BSA. To fix the samples, 100 μl of 2% formaldehyde (Polysciences, Inc. ultrapure EM grade, catalog number 04018) are added to each tube. Flow cytometry is performed using a Cytomation MoFlo instrument.

E-selectin/Ig chimera = assay: E-selectin competitive binding assay (sLe^a polyacrylamide conjugate); conditions: FIGS. 4 and 5
Procedure: The inhibition assay to screen glycomimetic antagonists of E-selectin is a competitive binding assay, which allows the determination of IC50 values. Briefly, E-selectin/Ig chimera is immobilized by incubation at 37° C. in 96 well microtiter plates for 2 hours. To reduce nonspecific binding, bovine serum albumin is added to each well and incubated at room temperature for 2 hours. The plate is washed and serial dilutions of the test compounds are added to the wells in the presence of conjugates of biotinylated, sLe^a polyacrylamide with streptavidin/horseradishperoxidase and incubated for 2 hours at room temperature. To determine the amount of sLe^a bound to immobilized E-selectin after washing, the peroxidase substrate, 3,3′,5,5′ tetramethylbenzidin (TMB) is added. After 3 minutes, the enzyme reaction is stopped by the addition of H3PO4 and the absorbance of light at a wavelength of 450 nm is determined. The concentration of test compound required to inhibit binding by 50% is determined and reported as the IC50 value for each glycomimetic E-selectin antagonist. In addition to reporting the absolute IC50 value as measured above, relative IC50 values are determined by a ratio of the IC50 measured for the test compound to that of an internal control (reference) stated for each assay.

T1 sequence (P61073 whole entry): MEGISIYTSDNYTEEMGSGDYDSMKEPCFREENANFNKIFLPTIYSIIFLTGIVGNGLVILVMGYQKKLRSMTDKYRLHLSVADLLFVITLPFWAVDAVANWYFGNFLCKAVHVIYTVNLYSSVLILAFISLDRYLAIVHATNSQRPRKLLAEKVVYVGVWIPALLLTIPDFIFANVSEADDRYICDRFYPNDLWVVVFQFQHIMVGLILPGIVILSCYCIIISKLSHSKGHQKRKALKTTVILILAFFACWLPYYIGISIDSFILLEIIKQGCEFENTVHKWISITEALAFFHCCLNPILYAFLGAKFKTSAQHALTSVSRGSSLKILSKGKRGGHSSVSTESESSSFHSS

Molecule: c1cc(CN2CCCNCCNCCCNCC2)ccc1CN1CCCNCCNCCCNCC1 [AMD-3100, reference compound]
- % positive ([1]; 1 μM inhibitor): 57.57%
- Mean fluorescence intensity ([1]; 1 μM inhibitor): 15.60
- Median fluorescence intensity ([1]; 1 μM inhibitor): 7.77
- % positive ([1]; 5 μM inhibitor): 12.42%
- Mean fluorescence intensity ([1]; 5 μM inhibitor): 9.98
- Median fluorescence intensity ([1]; 5 μM inhibitor): 3.92

Molecule: CC1CC(C(=O)NCCNCc2ccc(CN3CCCNCCNCCCNCC3)cc2)CC(OC2OC(CO)C(O)C(O[C@@H](CC3CCCCC3)C(=O)O)C2OC(=O)c2ccccc2)C1OC1OC(C)C(O)C(O)C1O (stereo partly shown) [Compound #1]
- Inhibition of binding of anti-CXCR4-PE antibody to CXCR4 (in words) [1]: inhibits binding of anti-CXCR4-PE to SupT1 cells in a dose-dependent manner
- % positive ([1]; 0.5 μM inhibitor): 98.69%
- Mean fluorescence intensity ([1]; 0.5 μM inhibitor): 68.49
- Median fluorescence intensity ([1]; 0.5 μM inhibitor): 54.25
- % positive ([1]; 5 μM inhibitor): 81.48%
- Mean fluorescence intensity ([1]; 5 μM inhibitor): 22.25
- Median fluorescence intensity ([1]; 5 μM inhibitor): 13.34
- % positive ([1]; 10 μM inhibitor): 42.06%
- Mean fluorescence intensity ([1]; 10 μM inhibitor): 14.08
- Median fluorescence intensity ([1]; 10 μM inhibitor): 6.04
- % positive ([1]; 50 μM inhibitor): 12.80%
- Mean fluorescence intensity ([1]; 50 μM inhibitor): 11.08
- Median fluorescence intensity ([1]; 50 μM inhibitor): 3.92
- pIC50 ([1]; anti-CXCR4-PE clone 12G5, 4° C.): 5.08
- E-selectin antagonist activity (in words) (E-selectin/Ig chimera): potent E-selectin antagonist

Molecule: SDF-1α
- Inhibition of binding of anti-CXCR4-PE antibody to CXCR4 (in words) [1]: efficiently inhibits binding
- % positive ([1]; 1 μg/ml inhibitor): 12.37%
- Mean fluorescence intensity ([1]; 1 μg/ml inhibitor): 10.25
- Median fluorescence intensity ([1]; 1 μg/ml inhibitor): 4.07
